Data taken from PMC5688848 (Bioorganic & medicinal chemistry, 2016).
Ends that are not written are not given here.

Legend:
HeLa cells [1] = test: Cell toxicity assay; format: cell-based; settings: 75 μM, 3 days
ICLR in COS7 cells = test: ICL repair assay; format: cell-based; settings: 75 μM
HeLa cells [2] = test: Cisplatin sensitization by the clonogenic survival assay; format: cell-based; settings: cisplatin 24 h then compound 75 μM 24 h, 6 more days
[3] = molecular target: His-REV7(R124A)/REV3L(1847–1898) complex (Homo sapiens, UniProt Q9UI95, R124A); test: Thermal shift assay; format: binding; settings: compound 500 μM, protein 5 μM, 4 h at room temperature
Sequence of His-REV7(R124A)/REV3L(1847–1898) complex (Q9UI95 whole entry R124A, one chain of several): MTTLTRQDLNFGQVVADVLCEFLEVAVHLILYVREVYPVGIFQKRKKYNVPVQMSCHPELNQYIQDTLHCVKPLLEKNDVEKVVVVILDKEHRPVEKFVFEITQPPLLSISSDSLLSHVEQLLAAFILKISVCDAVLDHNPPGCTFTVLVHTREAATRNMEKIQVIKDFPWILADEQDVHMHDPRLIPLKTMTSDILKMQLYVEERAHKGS

[4] = molecular target: His-REV7(R124A)/biotin-AviTag-REV3L(1846–1898) complex (Homo sapiens, UniProt Q9UI95, R124A); test: Pull-down assay on streptavidin-conjugated agarose beads; format: binding; settings: compound 50 μM, complex 1 μM, 4°C 20 h
Sequence of His-REV7(R124A)/biotin-AviTag-REV3L(1846–1898) complex (Q9UI95 whole entry R124A, one chain of several): as above

[5] = molecular target: T1, hexahistidine (His)-REV7(R124A) (UniProt Q9UI95 1-211, R124A); test: AlphaScreen or HTRF
T1 sequence (Q9UI95 whole entry R124A): as the sequence (Q9UI95 whole entry R124A, one chain of several) above

[6] = molecular target: T1, hexahistidine (His)-REV7(R124A); test: AlphaScreen or HTRF; remark: listed apart in the source

## CC(=O)N1CCC(Cn2cnc3scc(-c4ccc(C)o4)c3c2=O)CC1 [compound 7]
HeLa cells [1]
  Viability / growth of HeLa cells (alamarBlue), normalized by DMSO: decreased HeLa cell growth but did not completely eliminate the cells
ICLR in COS7 cells
  ICLR activity (luciferase activity of ICL plasmid normalized to non-ICL plasmid): suppressed luciferase activity
HeLa cells [2]
  Normalized number of colonies (clonogenic survival) versus cisplatin only: lesser

## CC(=O)N1CCC(Cn2cnc3scc(-c4ccco4)c3c2=O)CC1 [compound 1]
[3]
  Shift in the denaturation point of the His-REV7(R124A)/REV3L(1847–1898) complex: clear shift in the denaturation point
[4]
  Isolation of His-REV7(R124A) on streptavidin beads (complex dissociation): significantly inhibited

## ANILKPLMSPPSREEIMATLL-biotin [C-terminal biotin-tagged REV3L(1875–1895) peptide]
[5]
  binding result: binds

## ANILKPLMSPPSREEIMATLL [non-tagged REV3L(1875–1895) peptide]
[6]
  IC50: 80 nM
